Experimental findings from publication PMC6044753, “Diclofenac Identified as a Kynurenine 3-Monooxygenase Binder and Inhibitor by Molecular Similarity Techniques” (ACS Omega, 2018) are described below.

In this test the target is kynurenine 3-monooxygenase (KMO) (Homo sapiens, UniProt O15229). Nature of the test: microdialysis (rapid equilibrium dialysis) with LC-MS on enriched HEK-KMO lysate; supported by cell lysate enzymatic inhibition, IC50 […]. Type of test: binding.
kynurenine 3-monooxygenase (KMO), sequence (O15229 whole entry): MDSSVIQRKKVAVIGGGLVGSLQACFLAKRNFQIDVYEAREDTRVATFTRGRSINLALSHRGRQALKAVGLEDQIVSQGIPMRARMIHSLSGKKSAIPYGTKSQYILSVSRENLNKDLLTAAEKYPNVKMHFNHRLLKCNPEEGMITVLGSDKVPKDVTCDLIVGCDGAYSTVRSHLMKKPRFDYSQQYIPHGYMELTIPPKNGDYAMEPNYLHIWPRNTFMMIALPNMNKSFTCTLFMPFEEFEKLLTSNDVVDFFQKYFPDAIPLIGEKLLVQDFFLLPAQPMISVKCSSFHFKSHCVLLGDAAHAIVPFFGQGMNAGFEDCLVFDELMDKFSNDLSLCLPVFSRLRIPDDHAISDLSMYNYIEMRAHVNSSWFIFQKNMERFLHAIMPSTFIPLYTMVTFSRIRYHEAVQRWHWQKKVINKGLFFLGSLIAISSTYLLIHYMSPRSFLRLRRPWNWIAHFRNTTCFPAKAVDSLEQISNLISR

Regarding `O=C(O)Cc1ccccc1Nc1c(Cl)cccc1Cl` [diclofenac], the affinity, expressed as Kd, was 64.8 ± 29.5 µM.
